# In patent publication US20230357099A1, “PYRAZOLO [3,4-B] PYRIDINE-4-CARBOXAMIDE NITRIFICATION INHIBITOR” (EUROCHEM ANTWERPTEN, priority 2020, published 2023):
# How the values were obtained:
# [1] = tested on: ABIL (ammonia-binding liquid inoculum), nitrifying microbial enrichment containing both AOA and AOB; assay: Nitrification inhibition assay on ABIL (ammonium consumption); assay type: cell-based; details: 0% = as strong as 100 µM PTIO, 100% = no inhibition
# agricultural soils = assay: In soil nitrification inhibition assay; details: soil; for inhibition at 50 µM: 50 µM of each compound; for inhibition at 100 µM: 100 µM of each compound
# Experimental: Top layer (0 to 10 cm) soil samples were collected from different fields in Belgium (Merelbeke, Sint-Laureins and Moorslede). Vegetation was removed and samples were taken from different plots. All soil samples were mixed and sieved (mesh size 2.8 mm) to filter large debris and homogenize soil. The soil was stored at 5° C. in plastic containers covered with Saran foil to prevent changes in microbial community composition and to maintain the original soil water content.
# Soil water content was determined by drying 20 g soil for ≥ 48 h in a 60° C. oven and measuring weight before and after drying. Based on the soil water content (± 20%), compound solutions were prepared so that addition of 200 µl compound and 200 µl NH4Cl solution would result in a final compound concentration of 50 µM (unless otherwise stated) and a final NH4+ concentration of 10 mM. Per treatment, 5 small pots were filled with 20 g soil. Next, the soil was treated first with the respective compound solution and then with the NH4Cl solution. Per tray, positive (50 µM DMP) and negative controls (DMSO) were included. […] Demineralized water was added to the soil every 2 to 3 days to a soil weight of 20 g. In the end, each sample of 20 g soil was dissolved in 100 ml 1 M KCI and shaken for 1 hour, followed by filtration through Whatmann® paper. The filtrate was used to measure pH, NH4+ and NO3— concentrations. The nitrification percentage was calculated as the ratio of the consumed ammonium in treated soil versus the consumed ammonium in non-treated soil; the nitrification inhibition percentage was calculated as ‘100% - the nitrification percentage’.
# [2] = tested on: agricultural soils (Moorslede and Sint-Laureins); assay: Greenhouse gas measurements from fertilized soil
# Experimental: Two agricultural soils coming from fields in Moorslede and Sint-Laureins were used. Screw top vials were filled with 10 g soil. Vials were sealed with Parafilm and preincubated at 21° C. in the dark for 5 days. After pre-incubation, vials were ventilated using a fan. Then 100 µL of a 1 mM compound solution (10 % DMSO) was added, immediately followed by the addition of 100 µL 200 mM NH4Cl. Vials were closed gastight and 5 mL synthetic air was added to the headspace using a plastic syringe, followed by the transfer of 5 mL headspace to an evacuated 3 mL exetainer. Vials were incubated at 21° C. in the dark and background NO concentration was noted. At each sampling timepoint, 5 mL synthetic air was added again to the headspace using a plastic syringe, again followed by the transfer of 5 mL headspace to an evacuated 3 mL exetainer. Vials were ventilated and closed again, and new gas samples were transferred to exetainers like before. N2O in the exetainers were measured via gas chromatography (GC-14 B (Schimadzu) equipped with Haysep Q columns (same spec) and an ECD detector, He at c.a. 20 mL min, 70° C.). The CO2 and CH4 concentration in the 3 mL exetainer vials was measured using a GC (Trace-GC, Interscience) equipped with Haysep Q columns (80-100, ⅛″ divided in 2 part 0.25 and 2.0 m connected with a 6 port valve to allow backflush of water vapor) and a FID (CH4) and TCD (CO2). Carrier gas was He c.a. 20 mL/min kept at 90° C. NO concentration was measured directly by connecting a chemiluminescence NO detector (CLD 77 AM, eco physics) directly to the headspace using a needle.
structure (smiles),measurement,setting,value
CC(C)c1cc(C(=O)N2CCSCC2)c2cnn(C(C)C)c2n1 [Example 2],ABIL - relative nitrification (%) at 2 µM,[1]; 2 µM compound,66%
same,activity at 10 µM,"[1]; 24 h, 10 µM compound, 24 h, read-out: ABIL - relative nitrification (%) at 10 µM",-31%
same,inhibition at 50 µM,"agricultural soils; 72 h, Soil 2, 3 days",4%
same,inhibition at 50 µM,"agricultural soils; 72 h, Soil 3, 3 days",5%
same,inhibition at 50 µM,"agricultural soils; 168 h, Soil 1, 7 days",0%
same,inhibition at 50 µM,"agricultural soils; 168 h, Soil 2, 7 days",15%
same,inhibition at 100 µM,"agricultural soils; 168 h, Soil 2, 7 days, 6 inhibitors alone and combined with Example 2",0%
same,inhibition at 100 µM,"agricultural soils; 168 h, Soil 2, 7 days, double and triple combinations",0%
same,inhibition at 50 µM,"agricultural soils; 168 h, Soil 3, 7 days",0%
same,N2O emissions compared to the DMSO control (in words),[2]; Moorslede soil,strongly reduced the emissions
same,"Cumulative emission at indicated timepoint [ppb], N2O, 4 h",[2]; Moorslede soil,119 ppb
same,"Cumulative emission at indicated timepoint [ppb], N2O, 24 h",[2]; Moorslede soil,834 ppb
same,"Cumulative emission at indicated timepoint [ppb], N2O, 48 h",[2]; Moorslede soil,1616 ppb
same,"Cumulative emission at indicated timepoint [ppb], N2O, 72 h",[2]; Moorslede soil,1875 ppb
same,"Cumulative emission at indicated timepoint [ppb], N2O, 99 h",[2]; Moorslede soil,1875 ppb
same,"Cumulative emission at indicated timepoint [ppb], NO, 4 h",[2]; Moorslede soil,256 ppb
same,"Cumulative emission at indicated timepoint [ppb], NO, 24 h",[2]; Moorslede soil,611 ppb
same,"Cumulative emission at indicated timepoint [ppb], NO, 48 h",[2]; Moorslede soil,1020 ppb
same,"Cumulative emission at indicated timepoint [ppb], NO, 72 h",[2]; Moorslede soil,1189 ppb
same,"Cumulative emission at indicated timepoint [ppb], NO, 99 h",[2]; Moorslede soil,1183 ppb
same,NO emissions compared to the DMSO or DMP control (in words),[2]; Sint-Laureins soil,reduce NO emissions
same,"Cumulative emission at indicated timepoint [ppb], N2O, 4 h",[2]; Sint-Laureins soil,33 ppb
same,"Cumulative emission at indicated timepoint [ppb], N2O, 24 h",[2]; Sint-Laureins soil,498 ppb
same,"Cumulative emission at indicated timepoint [ppb], N2O, 48 h",[2]; Sint-Laureins soil,1074 ppb
same,"Cumulative emission at indicated timepoint [ppb], N2O, 72 h",[2]; Sint-Laureins soil,1562 ppb
same,"Cumulative emission at indicated timepoint [ppb], N2O, 99 h",[2]; Sint-Laureins soil,1703 ppb
same,"Cumulative emission at indicated timepoint [ppb], NO, 4 h",[2]; Sint-Laureins soil,81 ppb
same,"Cumulative emission at indicated timepoint [ppb], NO, 24 h",[2]; Sint-Laureins soil,201 ppb
same,"Cumulative emission at indicated timepoint [ppb], NO, 48 h",[2]; Sint-Laureins soil,371 ppb
same,"Cumulative emission at indicated timepoint [ppb], NO, 72 h",[2]; Sint-Laureins soil,547 ppb
same,"Cumulative emission at indicated timepoint [ppb], NO, 99 h",[2]; Sint-Laureins soil,600 ppb
